One experiment has as its target P70S6K (T412E mutant) (Homo sapiens (Human), UniProt P23443, T412E). Nature of the experiment: P70S6K enzyme assay. The following applies: read-out: IC50 p70S6K. The experiment is classed as biochemical. The gist of the method: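 Phosphorylated product and substrate peptide separated by microfluidic capillary electrophoresis (Caliper LabChip 3000), product peaks resolving before substrate.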

The next experiment addresses His-AKT (Full Length) (Homo sapiens (Human), UniProt P31749). Nature of the experiment: AKT enzyme assay. It is filed as biochemical. The following applies: read-out: IC50 AKT.

Chain of His-AKT (Full Length) (P31749 whole entry): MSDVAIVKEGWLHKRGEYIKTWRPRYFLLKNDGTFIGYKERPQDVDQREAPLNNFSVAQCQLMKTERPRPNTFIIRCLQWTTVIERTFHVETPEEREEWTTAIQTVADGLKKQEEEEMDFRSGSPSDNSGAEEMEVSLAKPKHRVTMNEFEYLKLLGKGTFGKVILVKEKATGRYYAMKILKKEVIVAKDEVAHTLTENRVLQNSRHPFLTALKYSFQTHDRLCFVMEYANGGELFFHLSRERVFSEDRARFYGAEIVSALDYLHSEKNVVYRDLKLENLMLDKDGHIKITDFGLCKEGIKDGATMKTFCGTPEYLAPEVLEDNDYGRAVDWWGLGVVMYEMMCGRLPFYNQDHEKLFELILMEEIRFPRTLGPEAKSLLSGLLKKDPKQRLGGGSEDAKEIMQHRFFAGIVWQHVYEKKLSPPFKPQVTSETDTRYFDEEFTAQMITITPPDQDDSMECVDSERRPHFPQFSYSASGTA
Chain of P70S6K (T412E mutant) (P23443 whole entry T412E): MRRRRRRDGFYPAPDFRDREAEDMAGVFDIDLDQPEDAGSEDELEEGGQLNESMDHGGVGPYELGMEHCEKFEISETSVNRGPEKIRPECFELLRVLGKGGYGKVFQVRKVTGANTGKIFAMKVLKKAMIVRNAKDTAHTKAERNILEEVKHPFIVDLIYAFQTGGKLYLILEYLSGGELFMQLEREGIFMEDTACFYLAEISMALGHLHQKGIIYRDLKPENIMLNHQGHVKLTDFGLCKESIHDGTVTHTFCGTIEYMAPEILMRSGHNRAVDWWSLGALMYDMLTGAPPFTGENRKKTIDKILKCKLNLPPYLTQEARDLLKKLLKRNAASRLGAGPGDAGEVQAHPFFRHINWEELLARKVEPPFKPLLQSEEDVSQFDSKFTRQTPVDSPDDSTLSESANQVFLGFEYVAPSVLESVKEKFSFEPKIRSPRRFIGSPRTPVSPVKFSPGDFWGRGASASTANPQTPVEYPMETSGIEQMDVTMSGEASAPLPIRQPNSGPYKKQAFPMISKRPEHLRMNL

The IC50 is the concentration that gives 50% inhibition. Regarding `Cc1ccc(-c2cn(CCN3CCC3)c(C3CCN(c4ncnc(N)c4C#N)CC3)n2)cc1F` [Compound 320], the results for the IC50 on P70S6K (T412E mutant) and at His-AKT (Full Length) were 1.6 nM and 48 nM, respectively.

For the compound `COc1ccc(-c2cn(CCN3CCC3)c(C3CCN(c4ncnc(N)c4C#N)CC3)n2)cc1F` [Compound 321], the IC50 at P70S6K (T412E mutant) came out at 2.6 nM; at His-AKT (Full Length), 59 nM.

For the compound `Cc1ccc(-c2cn(CCN3CCC3)c(C3CCN(c4ncnc(N)c4C#N)CC3)n2)cc1Cl` [Compound 322], the half-maximal inhibitory concentration (IC50) at P70S6K (T412E mutant) is 1.3 nM; at His-AKT (Full Length), 13 nM.

Turning to `COc1ccc(-c2cn(CCN3CCC3)c(C3CCN(c4ncnc(N)c4C#N)CC3)n2)cc1Cl` [Compound 323], the 50% inhibitory concentration (IC50) at P70S6K (T412E mutant) amounted to 8.3 nM; on His-AKT (Full Length) it was 31 nM.

With `Cc1cc(-c2cn(CCN3CCCC3)c(C3CCN(c4ncnc(N)c4C#N)CC3)n2)ccc1F` [Compound 324], the 50% inhibitory concentration (IC50) at P70S6K (T412E mutant) was 2.8 nM; at His-AKT (Full Length), 3.5 nM.

In the case of `Cc1cc(-c2cn(CCN(C)C)c(C3CCN(c4ncnc(N)c4C#N)CC3)n2)ccc1F` [Compound 325], the results for the IC50 on P70S6K (T412E mutant) and at His-AKT (Full Length) were 0.5 nM and 0.9 nM, respectively.

For `CCN(CC)CCn1cc(-c2ccc(F)c(C)c2)nc1C1CCN(c2ncnc(N)c2C#N)CC1` [Compound 326], the results for the concentration for half-maximal inhibition (IC50) on P70S6K (T412E mutant) and on His-AKT (Full Length) were 2.7 nM and 2.5 nM, respectively.

In the case of `CCN(CCn1cc(-c2ccc(F)c(C)c2)nc1C1CCN(c2ncnc(N)c2C#N)CC1)C(C)C` [Compound 327], the 50% inhibitory concentration (IC50) at P70S6K (T412E mutant) was found to be 5.2 nM; at His-AKT (Full Length), 2.8 nM.

Consider `NC(=O)c1c(N)ncnc1N1CCC(c2nc(-c3ccc(F)c(F)c3)cn2CCN2CCC2)CC1` [Compound 328], for which the half-maximal inhibitory concentration (IC50) at P70S6K (T412E mutant) stood at 8.1 nM; on His-AKT (Full Length) it was 140 nM.

As for `NC(=O)c1c(N)ncnc1N1CCC(c2nc(-c3ccc(F)c(F)c3)cn2CCN2CCCC2)CC1` [Compound 329], the half-maximal inhibitory concentration (IC50) on P70S6K (T412E mutant) worked out at 14 nM; on His-AKT (Full Length), 120 nM.

Regarding `NC(=O)c1c(N)ncnc1N1CCC(c2nc(-c3ccc(F)c(Cl)c3)cn2CCN2CCCC2)CC1` [Compound 330], the half-inhibitory concentration (IC50) was determined as 3.6 nM on P70S6K (T412E mutant) and 14 nM on His-AKT (Full Length).

Consider `NC(=O)c1c(N)ncnc1N1CCC(c2nc(-c3ccc(F)c(C(F)(F)F)c3)cn2CCN2CCCC2)CC1` [Compound 331], for which the IC50 amounted to 4.6 nM on P70S6K (T412E mutant) and 15 nM at His-AKT (Full Length).

`CC(C)c1cc(-c2cn(CCN3CCC3)c(C3CCN(c4ncnc(N)c4C(N)=O)CC3)n2)ccn1` [Compound 332]: the results for the IC50 on P70S6K (T412E mutant) and at His-AKT (Full Length) were 3.8 nM and 37 nM, respectively.

As for `NC(=O)c1c(N)ncnc1N1CCC(c2nc(-c3ccc(F)cc3)cn2CCN2CCCC2)CC1` [Compound 333], the IC50 on P70S6K (T412E mutant) was 21 nM; on His-AKT (Full Length), 380 nM.

On to `NC(=O)c1c(N)ncnc1N1CCC(c2nc(-c3cccc(F)c3)cn2CCN2CCCC2)CC1` [Compound 334], for which the half-inhibitory concentration (IC50) on P70S6K (T412E mutant) is 26 nM; at His-AKT (Full Length), 620 nM.

`NC(=O)c1c(N)ncnc1N1CCC(c2nc(-c3cccc(C(F)(F)F)c3)cn2CCN2CCCC2)CC1` [Compound 335]: the half-inhibitory concentration (IC50) on P70S6K (T412E mutant) amounted to 13 nM; on His-AKT (Full Length), 92 nM.

As for `NC(=O)c1c(N)ncnc1N1CCC(c2nc(-c3cccc(Cl)c3)cn2CCN2CCCC2)CC1` [Compound 336], the IC50 was found to be 7.6 nM at P70S6K (T412E mutant) and 76 nM at His-AKT (Full Length).

On to `NC(=O)c1c(N)ncnc1N1CCC(c2nc(-c3ccc(F)c(C(F)(F)F)c3)cn2CCN2CCCCC2)CC1` [Compound 337], for which the IC50 on P70S6K (T412E mutant) stood at 3.5 nM; on His-AKT (Full Length) it was 11 nM.

For the compound `NC(=O)c1c(N)ncnc1N1CCC(c2nc(-c3ccc(F)c(OC(F)F)c3)cn2CCN2CCC2)CC1` [Compound 338], the results for the IC50 on P70S6K (T412E mutant) and at His-AKT (Full Length) were 2 nM and 29 nM, respectively.

In the case of `NC(=O)c1c(N)ncnc1N1CCC(c2nc(-c3cc[nH]c(=O)c3)cn2CCN2CCC2)CC1` [Compound 339], the results for the 50% inhibitory concentration (IC50) at P70S6K (T412E mutant) and at His-AKT (Full Length) were 2700 nM and 5800 nM, respectively.

For `Cc1ccc(-c2cn(CCN3CCC3)c(C3CCN(c4ncnc(N)c4C(N)=O)CC3)n2)cc1C(F)(F)F` [Compound 340], the IC50 was found to be 4 nM at P70S6K (T412E mutant) and 420 nM at His-AKT (Full Length).

On to `CCc1cc(-c2cn(CCN3CCC3)c(C3CCN(c4ncnc(N)c4C(N)=O)CC3)n2)ccn1` [Compound 341], for which the values for the IC50 on P70S6K (T412E mutant) and at His-AKT (Full Length) were 11 nM and 450 nM, respectively.

On to `NC(=O)c1c(N)ncnc1N1CCC(c2nc(-c3ccnc(C4CC4)c3)cn2CCN2CCC2)CC1` [Compound 342], for which the IC50 worked out at 3.7 nM at P70S6K (T412E mutant) and 61 nM on His-AKT (Full Length).

For the compound `CC(C)(C)c1cc(-c2cn(CCN3CCC3)c(C3CCN(c4ncnc(N)c4C(N)=O)CC3)n2)ccn1` [Compound 343], the half-inhibitory concentration (IC50) on P70S6K (T412E mutant) amounted to 5.5 nM; on His-AKT (Full Length), 170 nM.

Turning to `Cc1ccc(-c2cn(CCN3CCC3)c(C3CCN(c4ncnc(N)c4C(N)=O)CC3)n2)cc1F` [Compound 344], the concentration for half-maximal inhibition (IC50) worked out at 25 nM on P70S6K (T412E mutant) and 2400 nM on His-AKT (Full Length).

For the compound `COc1ccc(-c2cn(CCN3CCC3)c(C3CCN(c4ncnc(N)c4C(N)=O)CC3)n2)cc1F` [Compound 345], the IC50 at P70S6K (T412E mutant) was found to be 100 nM; on His-AKT (Full Length) it was 13000 nM.

For `Cc1ccc(-c2cn(CCN3CCC3)c(C3CCN(c4ncnc(N)c4C(N)=O)CC3)n2)cc1Cl` [Compound 346], the IC50 on P70S6K (T412E mutant) is 3.9 nM; on His-AKT (Full Length), 220 nM.

In the case of `COc1ccc(-c2cn(CCN3CCC3)c(C3CCN(c4ncnc(N)c4C(N)=O)CC3)n2)cc1Cl` [Compound 347], the results for the IC50 on P70S6K (T412E mutant) and at His-AKT (Full Length) were 87 nM and 990 nM, respectively.

Consider `Cc1cc(-c2cn(CCN(C)C)c(C3CCN(c4ncnc(N)c4C(N)=O)CC3)n2)ccc1F` [Compound 348], for which the half-inhibitory concentration (IC50) was determined as 4 nM on P70S6K (T412E mutant) and 32 nM on His-AKT (Full Length).

As to `CCN(CC)CCn1cc(-c2ccc(F)c(C)c2)nc1C1CCN(c2ncnc(N)c2C(N)=O)CC1` [Compound 349], the IC50 on P70S6K (T412E mutant) worked out at 25 nM; at His-AKT (Full Length) it was 55 nM.

Regarding `Cc1cc(-c2cn(CCN3CCCC3)c(C3CCN(c4ncnc(N)c4C(N)=O)CC3)n2)ccc1F` [Compound 350], the IC50 at P70S6K (T412E mutant) came to 2.3 nM; at His-AKT (Full Length), 10 nM.

Regarding `CCN(CCn1cc(-c2ccc(F)c(C)c2)nc1C1CCN(c2ncnc(N)c2C(N)=O)CC1)C(C)C` [Compound 351], the half-inhibitory concentration (IC50) on P70S6K (T412E mutant) came to 27 nM; on His-AKT (Full Length), 48 nM.

For `CCc1c(N)ncnc1N1CCC(c2nc(-c3cnc(N(C)C)nc3)cn2CCN2CCC2)CC1` [Compound 352, 6-{4-[1-(2-Azetidin-1-yl-ethyl)-4-(2-dimethylamino-pyrimidin-5-yl)-1H-imidazol-2-yl]-piperidin-1-yl}-5-ethyl-pyrimidin-4-ylamine], the figures for the half-inhibitory concentration (IC50) at P70S6K (T412E mutant) and at His-AKT (Full Length) were 310 nM and 5700 nM, respectively.

On to `N#Cc1c(N)ncnc1N1CCC(c2nc(-c3ccccc3F)cn2CCN2CCC2)CC1` [Compound 353, 4-Amino-6-{4-[1-(2-azetidin-1-yl-ethyl)-4-(2-fluoro-phenyl)-1H-imidazol-2-yl]-piperidin-1-yl}-pyrimidine-5-carbonitrile], for which the IC50 worked out at 14 nM on P70S6K (T412E mutant) and 140 nM on His-AKT (Full Length).

Regarding `N#Cc1c(N)ncnc1N1CCC(c2nc(-c3cccc(S(N)(=O)=O)c3)cn2CCN2CCC2)CC1` [Compound 354, 3-[2-[1-(6-Amino-5-cyano-pyrimidin-4-yl)-piperidin-4-yl]-1-(2-azetidin-1-yl-ethyl)-1H-imidazol-4-yl]-benzenesulfonamide], the IC50 at P70S6K (T412E mutant) and on His-AKT (Full Length) was > 10000 nM each time.

For `CS(=O)(=O)c1cccc(-c2cn(CCN3CCC3)c(C3CCN(c4ncnc(N)c4C#N)CC3)n2)c1` [Compound 355, 4-Amino-6-{4-[1-(2-azetidin-1-yl-ethyl)-4-(3-methanesulfonyl-phenyl)-1H-imidazol-2-yl]-piperidin-1-yl}-pyrimidine-5-carbonitrile], the IC50 at P70S6K (T412E mutant) worked out at 17 nM; on His-AKT (Full Length), 80 nM.

As to `CS(=O)(=O)c1cccc(-c2cn(CCN3CCC3)c(C3CCN(c4ncnc(N)c4C(N)=O)CC3)n2)c1` [Compound 356, 4-Amino-6-{4-[1-(2-azetidin-1-yl-ethyl)-4-(3-methanesulfonyl-phenyl)-1H-imidazol-2-yl]-piperidin-1-yl}-pyrimidine-5-carboxylic acid amide], the IC50 came out at 80 nM on P70S6K (T412E mutant) and 560 nM on His-AKT (Full Length).

With `N#Cc1c(N)ncnc1N1CCC(c2nc(-c3ccc(F)c(C(F)(F)F)c3)cn2CCO)CC1` [Compound 357, 4-Amino-6-{4-[4-(4-fluoro-3-trifluoromethyl-phenyl)-1-(2-hydroxy-ethyl)-1H-imidazol-2-yl]-piperidin-1-yl}-pyrimidine-5-carbonitrile], the IC50 on P70S6K (T412E mutant) worked out at 0.8 nM; on His-AKT (Full Length), 130 nM.

With `N#Cc1c(N)ncnc1N1CCC(c2nc(-c3ccc(F)c(C(F)(F)F)c3)cn2CCNCC2CC2)CC1` [Compound 358, 4-Amino-6-{4-[1-[2-(cyclopropylmethyl-amino)-ethyl]-4-(4-fluoro-3-trifluoromethyl-phenyl)-1H-imidazol-2-yl]-piperidin-1-yl}-pyrimidine-5-carbonitrile], the IC50 on P70S6K (T412E mutant) stood at 1.1 nM; at His-AKT (Full Length), 1.6 nM.

As for `NC(=O)c1c(N)ncnc1N1CCC(c2nc(-c3ccc(F)c(C(F)(F)F)c3)cn2CCNCC2CC2)CC1` [Compound 359, 4-Amino-6-{4-[1-[2-(cyclopropylmethyl-amino)-ethyl]-4-(4-fluoro-3-trifluoromethyl-phenyl)-1H-imidazol-2-yl]-piperidin-1-yl}-pyrimidine-5-carboxylic acid amide], the IC50 on P70S6K (T412E mutant) was determined as 2.7 nM; at His-AKT (Full Length), 12 nM.

Regarding `CC(C)N(C)CCn1cc(-c2ccc(F)c(C(F)(F)F)c2)nc1C1CCN(c2ncnc(N)c2C#N)CC1` [Compound 360, 4-Amino-6-(4-{4-(4-fluoro-3-trifluoromethyl-phenyl)-1-[2-(isopropyl-methyl-amino)-ethyl]-1H-imidazol-2-yl}-piperidin-1-yl)-pyrimidine-5-carbonitrile], the IC50 on P70S6K (T412E mutant) was 2.2 nM; at His-AKT (Full Length) it was 2.7 nM.

Take `CC(C)N(C)CCn1cc(-c2ccc(F)c(C(F)(F)F)c2)nc1C1CCN(c2ncnc(N)c2C(N)=O)CC1` [Compound 361, 4-Amino-6-(4-{4-(4-fluoro-3-trifluoromethyl-phenyl)-1-[2-(isopropyl-methyl-amino)-ethyl]-1H-imidazol-2-yl}-piperidin-1-yl)-pyrimidine-5-carboxylic acid amide]: the 50% inhibitory concentration (IC50) on P70S6K (T412E mutant) is 6.4 nM; at His-AKT (Full Length), 11 nM.

Source of the values: patent US9145392B2, “Imidazole amines as modulators of kinase activity” (Merck Patent GmbH, priority 2011, dated 2015).
